According to patent US8747881B2, “Intraluminal medical devices in combination with therapeutic agents” (Cordis Corporation, priority 2003, dated 2014):
Blank lines part the entries; values can stand above or below the compound they belong to.

What was measured:
[1] = Drug concentration in liquid formulations by liquid chromatography / HPLC; format: physicochemical
Protocol: Table 8, shown below, summarizes the concentrations of the excipient, the co-solvents and the drug for four different liquid formulations in accordance with exemplary embodiments of the present invention.
In another exemplary embodiment, the liquid formulation of sirolimus comprises water and ethanol as co-solvents and Vitamin E TPGS as the excipient. The liquid formulation was created utilizing the following process. Two hundred milligrams of sirolimus and two grams of ethanol were added to a pre-weighed twenty milliliter scintillation vial. The vial was vortexed and sonicated until the sirolimus was completely dissolved. Approximately six hundred milligrams of Vitamin E TPGS was then added to the solution of ethanol and sirolimus. The vial was vortexed again until a clear yellowish solution was obtained. Nitrogen gas was then used to reduce the amount of ethanol in the vial to approximately two hundred twenty-nine milligrams. In a separate vial, three hundred milligrams of Vitamin E TPGS was dissolved in eleven milliliters of purified water while undergoing vortexing. The Vitamin E TPGS and water solution was then added to the first vial containing the sirolimus, Vitamin E TPGS and ethanol. The first vial was then vortexed vigorously and continuously for three minutes. […] The foam gradually disappeared after sitting at room temperature. […]

[2] = test system: human smooth muscle cells; experiment: Cladribine Example: PDGF-stimulated cell proliferation, smooth muscle cells; format: cell-based; conditions: from the IC50 values
Protocol: To assess the ability of cladribine to prevent cell proliferation, human smooth muscle or endothelial cells (Clonetics, Walkersville, Md.) were seeded at a density of 2000 cells/cm^2 (approximately 3600 cells/well) into each well of 12-well plates and cultured with 1.5 ml of growth medium containing five percent fetal calf serum (FCS). After twenty-four hours, the growth medium was changed and fresh medium containing 10 ng/ml platelet-derived growth factor AB (PDGF AB; LIFE Technologies), as well as various concentrations of cladribine (0.001-10,000 nM) were added with triplicate wells. Medium was replaced with fresh cladribine-containing medium after three days. On day six, cells were detached by trypsinization to yield a cell suspension, lightly centrifuged to pellet and then counted manually using a Neubauer hemocytometer system. Cell viability was assessed by trypan blue exclusion.

[3] = test system: human coronary artery smooth muscle cells; experiment: Anti-proliferative activity in non-synchronized cultured cells stimulated with two percent fetal bovine serum; format: cell-based; conditions: for effect on the anti-proliferative activity of rapamycin when added: non-synchronized cells, added to cells treated with rapamycin
From the text: The multiple curves represent various concentrations of mycophenolic acid ranging from zero to one thousand nanomolar concentrations. […] This potentiation observed in cultured coronary artery smooth muscle cells preferably translates to an enhancement in anti-restenotic efficacy following vascular injury and a reduction in the required amount of either agent to achieve the desired anti-restenotic effect.
FIG. 58 illustrates, in graphical format, the anti-proliferative activity of cladribine in non-synchronized cultured human coronary artery smooth muscle cells stimulated with two percent fetal bovine serum.
The multiple curves represent various concentrations of cladribine ranging from zero to nine hundred nanomolar concentrations. […] As illustrated, the percent inhibition increases substantially as the dose of cladribine increases.

[4] = test system: human coronary artery smooth muscle cells; experiment: Anti-proliferative activity in synchronized cultured cells stimulated with two percent fetal bovine serum; format: cell-based; conditions: for effect on the anti-proliferative activity of rapamycin when added: added to cells treated with rapamycin
From the text: (§1) The multiple curves represent various concentrations of topotecan ranging from zero to three hundred nanomolar concentrations.
(§2) The multiple curves represent various concentrations of etoposide ranging from zero to eight hundred nanomolar concentrations.
The multiple curves represent various concentrations of Panzem® ranging from zero to 100 micromolar concentrations.

cell viability = experiment: Cell viability assay; format: cell-based
From the text: as §1, §2

[5] = test system: human coronary artery smooth muscle cell; experiment: MTS cytotoxicity assay; format: cell-based; conditions: concentrations up to 30,000.00 nanomolar, FIG. 69
From the text: Typically, a control is utilized to determine baseline toxicity.

[6] = test system: human coronary artery smooth muscle cell; experiment: In vitro cell culture study of coronary artery smooth muscle cell proliferation; format: cell-based
From the text: FIG. 51 is a graph of the inhibition of coronary artery smooth muscle cells by trichostatin A in a cell culture study.

tumor cell lines = conditions: cited from earlier work

- concentration in the final solution (HPLC assay) ([1]; ethanol (less than two percent), Vitamin E TPGS and water): 15000 µg/mL
SMILES: CO[C@H]1C[C@@H]2CC[C@@H](C)[C@@](O)(O2)C(=O)C(=O)N2CCCC[C@H]2C(=O)O[C@H]([C@H](C)C[C@@H]2CC[C@@H](OC(=O)C(C)(CO)CO)[C@H](OC)C2)CC(=O)[C@H](C)/C=C(\C)[C@@H](O)[C@@H](OC)C(=O)[C@H](C)C[C@H](C)/C=C/C=C/C=C/1C [CCI-779]

SMILES: Nc1nc(Cl)nc2c1ncn2[C@H]1C[C@H](O)[C@@H](CO)O1 [Cladribine, 2-chlorodeoxyadenosine]
- potency as inhibitor of smooth muscle cells relative to endothelial cells [2]: approximately twice
- effect on the anti-proliferative activity of rapamycin when added [3]: increases the percent inhibition of rapamycin alone
- inhibition of human coronary artery smooth muscle cell proliferation ([3]; non-synchronized, two percent fetal bovine serum, FIG. 58): completely inhibits

SMILES: COc1cc([C@@H]2c3cc4c(cc3[C@@H](O[C@@H]3O[C@@H]5CO[C@@H](C)O[C@H]5[C@H](O)[C@H]3O)[C@H]3COC(=O)[C@H]23)OCO4)cc(OC)c1O [Etoposide, etoposide]
- effect on the anti-proliferative activity of rapamycin when added [4]: increases the percent inhibition of rapamycin alone
- cytotoxicity (cell viability; concentrations up to ten micromolar): non-cytotoxic

SMILES: COc1cc2c(cc1O)CC[C@@H]1[C@@H]2CC[C@]2(C)[C@@H](O)CC[C@@H]12 [Panzem®, 2-methoxyestradiol]
- inhibition of human coronary artery smooth muscle cell proliferation in vitro ([4]; FIG. 66): extremely effective inhibitor
- effect on the anti-proliferative activity of rapamycin when added [4]: increases the percent of inhibition of rapamycin alone
- cell survival (MTS assay) [5]: do not reduce human coronary artery smooth muscle cell survival

- concentration relative to the solubility of sirolimus in water ([1]; 4 mg/ml formulation with PEG 200, ethanol and water): four hundred to about one thousand
SMILES: CO[C@H]1C[C@@H]2CC[C@@H](C)[C@@](O)(O2)C(=O)C(=O)N2CCCC[C@H]2C(=O)O[C@H]([C@H](C)C[C@@H]2CC[C@@H](O)[C@H](OC)C2)CC(=O)[C@H](C)/C=C(\C)[C@@H](O)[C@@H](OC)C(=O)[C@H](C)C[C@H](C)/C=C/C=C/C=C/1C [Rapamycin, rapamycin]

SMILES: CC[C@@]1(O)C(=O)OCc2c1cc1n(c2=O)Cc2cc3c(CN(C)C)c(O)ccc3nc2-1 [Topotecan, topotecan]
- effect on the anti-proliferative activity of rapamycin when added [4]: increases the percent inhibition of rapamycin alone
- cytotoxicity (cell viability; concentrations up to one micromolar): non-cytotoxic

SMILES: COc1c(C)c2c(c(O)c1C/C=C(\C)CCC(=O)O)C(=O)OC2 [mycophenolic acid]
- effect on the anti-proliferative activity of rapamycin when added [3]: potentiates the anti-proliferative activity of rapamycin

SMILES: CC(/C=C/C(=O)NO)=C\[C@@H](C)C(=O)c1ccc(N(C)C)cc1 [trichostatin A]
- IC50 ([6]; human coronary artery smooth muscle cell proliferation, read-out: anti-proliferative IC50): ~6 nM
- inhibition of human coronary artery smooth muscle cell proliferation ([6]; in vitro cell culture): completely inhibit
- anti-proliferative IC50 (tumor cell lines): low nM range
